{"source": "patent US11084795B2", "about": "“CFTR regulators and methods of use thereof” (The Regents of the University of California, priority 2015, dated 2021)", "key": {"cellular cAMP": {"test_system": "cellular cAMP", "test": "GloSensor cAMP assay in FRT cells", "assay_type": "cell-based, rat", "settings": "1c at 10 μM", "experimental": "Intracellular cAMP activity was measured using a GloSensor luminescence assay (Promega Corp., Madison, Wisconson, USA). FRT null cells were stably transfected with the pGloSensor cAMP plasmid and plated onto white 96-well microplates and grown to confluence. Cells were washed three times with PBS and incubated with 5 μM CFTRact-J027 for 10 min in the absence and presence of 100 nM forskolin. cAMP was assayed according to the manufacturer's instructions.\nIntracellular cAMP activity was measured using a GloSensor luminescence assay (Promega Corp., Madison, Wis., USA). FRT cells stably transfected with the pGloSensor cAMP plasmid (Promega Corp.) were cultured in white 96-well microplates (Corning Costar) overnight. Cells were then washed three times with PBS and incubated with 5 μM test compound for 10 min in the absence and presence of 100 nM forskolin.\ncAMP assay. Intracellular cAMP activity was measured using a GloSensor luminescence assay (Promega Corp., Madison, Wisconson, USA). FRT null cells were stably transfected with the pGloSensor cAMP plasmid and plated onto white 96-well microplates and grown to confluence. […]\ncAMP and cytotoxicity assays. Intracellular cAMP activity was measured using a GloSensor luminescence assay (Promega Corp., Madison, Wis., USA). […]"}, "[1]": {"test_system": "calcium-activated chloride channels in HT-29 cells", "test": "CaCC activity in HT-29 cells expressing YFP", "assay_type": "cell-based", "settings": "1c at 10 μM"}, "TMEM16A": {"test_system": "TMEM16A", "test": "TMEM16A activity in FRT cells expressing YFP and TMEM16A", "assay_type": "cell-based", "settings": "1c at 10 μM"}, "cytoplasmic calcium": {"test_system": "cytoplasmic calcium", "test": "Cytoplasmic calcium (Fluo-4) in FRT cells", "assay_type": "cell-based, rat", "settings": "1c at 10 μM; ATP as calcium agonist", "experimental": "FIGS. 23A-23D. In vitro characterization of compound 1c. FIG. 23A. Cellular cAMP in FRT cells in response to incubation for 10 min with […] 1c without or with 90 nM forskolin (fsk). Positive controls included fsk (100 nM and 20 pM) and fsk+IBMX (20 pM+100 pM) (mean±S.E.M., n=4). FIG. 23B. Cytoplasmic calcium measured by Fluo-4 fluorescence. FRT cells were pretreated for 5 min with 10 pM 1c (or control), with 100 pM ATP added as a calcium agonist as indicated. FIG. 23C. […] FIG. 23D."}, "[2]": {"test": "In vitro metabolic stability in mouse liver microsomes", "assay_type": "in vitro ADME", "settings": "mouse hepatic microsomes, NADPH", "experimental": "(§1) CFTRact-J027 (5 μM) was incubated for specified times at 37° C. with mouse liver microsomes (1 mg protein/ml; Sigma-Aldrich) in potassium phosphate buffer (100 mM) containing 1 mM NADPH, as described. The mixture was then chilled on ice, and 0.5 ml of ice-cold ethyl acetate was added. Samples were centrifuged for 15 min at 3000 rpm, the supernatant evaporated to dryness, and the residue was dissolved in 100 μL mobile phase (acetonitrile:water, 3:1) for LC/MS and assayed as described above.\nas §1, with “In vitro metabolic stability. CFTRact-J027” for “CFTRact-J027”\nIn vitro metabolic stability. Test compound (at 5 μM) was incubated for specified times at 37° C. with mouse liver microsomes (1 mg protein/ml; Sigma-Aldrich, St. Louis, Mo.) in potassium phosphate buffer containing 1 mM NADPH, as described. Following ethyl acetate extraction, non-metabolized parent compound was assayed by LC/MS."}, "loperamide-treated mice": {"test_system": "loperamide-treated mice", "test": "Loperamide-induced mouse model of constipation", "settings": "1c orally 1 h prior to loperamide, 3-h stool"}, "human wildtype CFTR [3]": {"biological_target": "T1, human wildtype CFTR (Homo sapiens, UniProt P13569)", "T1 sequence (P13569 whole entry)": "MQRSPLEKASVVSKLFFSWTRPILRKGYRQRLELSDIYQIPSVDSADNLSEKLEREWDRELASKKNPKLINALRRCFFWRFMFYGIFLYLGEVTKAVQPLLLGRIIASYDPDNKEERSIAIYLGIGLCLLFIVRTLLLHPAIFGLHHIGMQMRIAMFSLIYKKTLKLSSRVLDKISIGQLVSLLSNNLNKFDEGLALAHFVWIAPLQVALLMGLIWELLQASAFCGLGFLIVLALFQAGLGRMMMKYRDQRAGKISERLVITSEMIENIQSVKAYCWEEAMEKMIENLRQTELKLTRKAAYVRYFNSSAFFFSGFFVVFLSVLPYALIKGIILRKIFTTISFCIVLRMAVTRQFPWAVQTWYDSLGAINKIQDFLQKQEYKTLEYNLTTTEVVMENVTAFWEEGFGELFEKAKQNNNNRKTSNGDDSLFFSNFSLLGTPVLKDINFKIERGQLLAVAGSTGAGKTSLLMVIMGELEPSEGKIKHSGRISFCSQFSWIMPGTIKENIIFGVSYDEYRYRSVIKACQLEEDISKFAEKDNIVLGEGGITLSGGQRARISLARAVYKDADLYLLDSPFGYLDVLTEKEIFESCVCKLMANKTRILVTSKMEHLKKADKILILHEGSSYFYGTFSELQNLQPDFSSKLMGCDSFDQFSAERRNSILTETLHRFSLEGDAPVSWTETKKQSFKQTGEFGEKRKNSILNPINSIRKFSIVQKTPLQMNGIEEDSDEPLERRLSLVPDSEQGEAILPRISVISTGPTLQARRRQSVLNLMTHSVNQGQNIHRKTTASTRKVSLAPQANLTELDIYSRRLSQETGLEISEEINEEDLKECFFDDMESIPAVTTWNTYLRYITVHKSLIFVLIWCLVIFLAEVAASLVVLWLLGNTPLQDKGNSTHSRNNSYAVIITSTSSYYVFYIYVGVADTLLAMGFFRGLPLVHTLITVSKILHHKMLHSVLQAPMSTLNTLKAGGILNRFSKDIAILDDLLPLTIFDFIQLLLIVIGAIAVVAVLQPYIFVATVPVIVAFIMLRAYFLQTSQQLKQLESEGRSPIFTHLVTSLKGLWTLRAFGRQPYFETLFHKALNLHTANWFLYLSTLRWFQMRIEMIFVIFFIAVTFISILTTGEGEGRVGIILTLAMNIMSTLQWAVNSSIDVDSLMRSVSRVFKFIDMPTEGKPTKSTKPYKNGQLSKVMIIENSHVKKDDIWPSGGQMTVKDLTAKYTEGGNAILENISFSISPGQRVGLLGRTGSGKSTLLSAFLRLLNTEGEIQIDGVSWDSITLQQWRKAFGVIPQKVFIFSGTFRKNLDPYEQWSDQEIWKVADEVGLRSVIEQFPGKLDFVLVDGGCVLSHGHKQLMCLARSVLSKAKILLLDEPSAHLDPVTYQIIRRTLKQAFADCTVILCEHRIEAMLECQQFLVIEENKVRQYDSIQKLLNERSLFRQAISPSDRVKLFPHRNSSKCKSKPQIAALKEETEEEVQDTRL", "test": "Fluorescence plate reader assay of iodide influx in FRT cells co-expressing CFTR and YFP halide sensor"}, "human wildtype CFTR [4]": {"biological_target": "T1, human wildtype CFTR", "test": "Short-circuit current (Isc) in FRT cells expressing human wild-type CFTR", "settings": "read-out: EC50 for CFTR activation; FRT cells, wild-type CFTR, short-circuit current"}}, "note": "“Also recorded” adds a separate entry of the source."}
{"compound": "O=c1c(-c2cccc([N+](=O)[O-])c2)nc2ccccc2n1Cc1ccccc1", "note": "[Compound 1c, 1-Benzyl-3-(3-nitrophenyl)quinoxalin-2(1H)-one]", "values": [{"measurement": "effect on cellular cAMP level", "setting": "cellular cAMP", "value": "did not affect the cellular cAMP level"}, {"measurement": "activation or inhibition of calcium-activated chloride channels in HT-29 cells", "setting": "[1]", "value": "no activation (iodide addition) or inhibition (iodide+ATP addition); also recorded: neither inhibited nor activated"}, {"measurement": "activation or inhibition of TMEM16A", "setting": "TMEM16A", "value": "no activation (iodide addition) or inhibition (iodide+ATP addition); also recorded: neither inhibited nor activated"}, {"measurement": "cytoplasmic calcium", "setting": "cytoplasmic calcium", "value": "nor did it elevate cytoplasmic calcium or inhibit the ATP-stimulated elevation in cytoplasmic calcium"}, {"measurement": "compound metabolized at 60 min", "setting": "[2]", "value": "< 40", "unit": "%"}, {"measurement": "stool weight, pellet number and hydration", "setting": "loperamide-treated mice", "value": "fully normalized stool weight, pellet number and hydration"}, {"measurement": "increased potency compared to 4", "setting": "human wildtype CFTR [3]; plate reader assay", "value": "~10", "unit": "fold"}, {"measurement": "EC50", "setting": "human wildtype CFTR [3]; read-out: EC50, variation in the 3-aryl ring, plate reader assay", "value": 9, "unit": "nM"}, {"measurement": "EC50", "setting": "human wildtype CFTR [3]; synthesized compounds, full dose-response study, 125 nM forskolin", "value": 9, "unit": "nM"}, {"measurement": "EC50", "setting": "human wildtype CFTR [4]", "value": 21, "unit": "nM"}]}
